Results as given in patent US20220041641A1, “QUATERNARY AMMONIUM SALTS AS INHIBITORS OF TRIMETHYLAMINE PRODUCTION” (Senda Biosciences, Inc., priority 2018, published 2022).

What was measured:
[1] = in vivo; set-up: species or system Sprague-Dawley rats; conditions: Sprague-Dawley, rat
Protocol: Sprague-Dawley rats (three rats per compound) were treated with a single intravenous (IV) 1 mg/kg dose or orally (PO) a single 10 mg/kg dose. Plasma concentrations of the conjugates were determined by LCMS at 5 minutes, 15 minutes, 30 minutes, 1 hour, 2 hours, 4 hours, 8 and 24 hours post compound administration. […] In addition, the plasma exposure and bioavailability of the active agent of was lower when dosed as a conjugate instead of the active agent alone.

[2] = tested on: enzymatic activity in fecal matter; assay: Inhibition of enzymatic activity in fecal matter; assay type: cell-based; conditions: d9-choline 1 mM, 16 hours at 37° C., anaerobic, d9-TMA by LCMS
Protocol: Inhibition of enzymatic activity in fecal matter was determined by adding a substrate (d9-choline, 1 mM final concentration) and a compound in a range of concentrations in order to determine an IC50. After incubation for a designated 16 hours at 37° C. in anaerobic conditions, samples were be prepared for LCMS analysis, and the amount of d9-TMA produced was determined using LCMS analysis as in the Examples above.

[3] = biological target: CutC from Proteus mirabilis (Proteus mirabilis, UniProt B4EYG1); assay: Cell-based assay for TMA production from a native producer (P. mirabilis); conditions: d9-TMA from 1 mM d9-choline, 5 h, 37° C.; value 10 given when no fit or % TMA remaining at 10 μM higher than 15%; read-out: Average IC50 Whole cell P. mirabilis
CutC from Proteus mirabilis, sequence (B4EYG1 entry or part of it): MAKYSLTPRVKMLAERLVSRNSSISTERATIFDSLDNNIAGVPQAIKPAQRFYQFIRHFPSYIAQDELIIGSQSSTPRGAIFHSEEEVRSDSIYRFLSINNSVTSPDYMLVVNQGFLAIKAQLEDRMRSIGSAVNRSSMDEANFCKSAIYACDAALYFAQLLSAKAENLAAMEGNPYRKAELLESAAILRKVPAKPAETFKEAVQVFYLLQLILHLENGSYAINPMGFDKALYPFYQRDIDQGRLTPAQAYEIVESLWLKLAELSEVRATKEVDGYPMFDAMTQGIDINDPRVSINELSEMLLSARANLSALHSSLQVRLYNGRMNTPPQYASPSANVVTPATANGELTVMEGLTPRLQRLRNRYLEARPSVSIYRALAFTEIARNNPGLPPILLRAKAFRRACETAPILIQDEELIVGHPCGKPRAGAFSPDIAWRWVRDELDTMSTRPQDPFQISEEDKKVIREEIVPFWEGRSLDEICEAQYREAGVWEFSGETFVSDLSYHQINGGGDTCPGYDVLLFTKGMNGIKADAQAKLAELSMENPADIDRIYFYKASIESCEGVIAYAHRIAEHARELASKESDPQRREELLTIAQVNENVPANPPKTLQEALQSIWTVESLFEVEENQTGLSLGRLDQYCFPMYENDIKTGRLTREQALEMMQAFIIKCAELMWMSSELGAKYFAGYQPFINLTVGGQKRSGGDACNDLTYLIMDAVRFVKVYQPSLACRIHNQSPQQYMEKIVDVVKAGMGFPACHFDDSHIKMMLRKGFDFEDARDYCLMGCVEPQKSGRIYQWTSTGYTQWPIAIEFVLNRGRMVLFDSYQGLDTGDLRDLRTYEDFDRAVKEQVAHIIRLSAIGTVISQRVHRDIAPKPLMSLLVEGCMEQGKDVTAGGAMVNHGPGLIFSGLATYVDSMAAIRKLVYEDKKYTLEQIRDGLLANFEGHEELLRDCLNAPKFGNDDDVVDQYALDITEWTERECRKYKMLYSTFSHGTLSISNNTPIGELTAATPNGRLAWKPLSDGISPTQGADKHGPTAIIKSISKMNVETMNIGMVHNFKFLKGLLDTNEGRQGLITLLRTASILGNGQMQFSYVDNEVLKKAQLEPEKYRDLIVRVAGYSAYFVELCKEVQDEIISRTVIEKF
CutC from Proteus mirabilis, sequence (B4EYG0 entry or part of it, further chain): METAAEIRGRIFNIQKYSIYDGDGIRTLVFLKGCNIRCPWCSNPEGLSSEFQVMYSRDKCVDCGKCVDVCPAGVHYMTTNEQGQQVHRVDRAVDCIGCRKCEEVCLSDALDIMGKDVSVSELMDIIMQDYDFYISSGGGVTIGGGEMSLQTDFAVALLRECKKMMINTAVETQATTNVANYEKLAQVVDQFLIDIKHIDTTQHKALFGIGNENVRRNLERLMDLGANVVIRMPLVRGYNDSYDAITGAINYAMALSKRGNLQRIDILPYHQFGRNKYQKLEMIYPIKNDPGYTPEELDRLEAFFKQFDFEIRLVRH
In short: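 Overnight anaerobic cultures of P. mirabilis or C. sporogenes, grown in BHI with 1 mM choline, were diluted and given 1 mM (trimethyl-d9)-choline plus compound at 10 μM final. After 5 h at 37° C., d9-TMA was quantified by LCMS.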

[4] = Pharmacokinetic study of colon contents and plasma after oral dose of conjugate; assay type: in vivo, male C57B3L/6 mice; conditions: male
Protocol: To confirm that the active agent component of the conjugate is released in the gastrointestinal tract, a pharmacokinetic study was conducted in male C57B3L/6 mice examining conjugate and active agent of concentrations in both the colon contents and plasma after oral dose of conjugate. Conjugate and active agent of were quantified by LCMS at 0 (pre-dose), 0.25, 0.5, 1, 2, 4, 6, 8, 12, and 24 hours post-dose of compound.

[5] = Caco-2 permeability assay; assay type: in vitro ADME; conditions: human, Caco-2, pH 7.4
Protocol: Preparation of Caco-2 Cells: 50 μL and 25 mL of cell culture medium were added to each well of the Transwell insert and reservoir, respectively. The HTS transwell plates were incubated at 37° C., 5% CO2 for 1 hour before cell seeding. […] Cell culture medium was replaced every other day, beginning no later than 24 hours after initial plating.
Assessment of Cell Monolayer Integrity: Medium was removed from the reservoir and each Transwell insert and replaced with prewarmed fresh culture medium. Transepithelial electrical resistance (TEER) across the monolayer was measured using Millicell Epithelial Volt-Ohm measuring system (Millipore, USA). The Plate was returned to the incubator once the measurement was done. The TEER value was calculated according to the following equation: […]
Preparation of Solutions: 2 mM stock solutions in DMSO of control compounds were prepared and diluted with HBSS (10 mM HEPES, pH 7.4) to get 10 μM working solution. 0.2 mM stock solutions of test compounds in DMSO were prepared and diluted with HBSS (10 mM HEPES, pH 7.4 with 0.5% BSA) to get 1 μM working solution. Metoprolol, erythromycin and cimetidine were used as control compounds.
The Caco-2 plate was removed from the incubator. The monolayer was washed twice with pre-warmed HBSS (10 mM HEPES, pH 7.4). The plate was incubated at 37° C. for 30 minutes. To determine the rate of drug transport in the apical to basolateral direction, 125 μL of the working solution was added to the Transwell insert (apical compartment). A 50 μL sample was transferred immediately from the apical compartment to 200 μL of acetonitrile containing IS (100 nM alprazolam, 200 nM Caffeine and 100 nM tolbutamide) in a new 96-well plate as the initial donor sample (A-B) and it was vortexed at 1000 rpm for 10 minutes. The wells in the receiver plate (basolateral compartment) were filled with 235 μL of transport buffer. To determine the rate of drug transport in the basolateral to apical direction, 285 μL of the working solution were added to the receiver plate wells (basolateral compartment). A 50 μL sample was transferred immediately from the basolateral compartment to 200 μL of acetonitrile containing IS (100 nM alprazolam, 200 nM Caffeine and 100 nM tolbutamide) in a new 96-well plate as the initial donor sample (B-A) and it was vortexed at 1000 rpm for 10 minutes. The Transwell insert (apical compartment) was filled with 75 μL of transport buffer. The apical to basolateral direction and the basolateral to apical direction need to be done at the same time. The plates were incubated at 37° C. for 2 hours. At the end of the incubation, 50 μL samples from donor sides (apical compartment for Ap→Bl flux, and basolateral compartment for B1→Ap) and receiver sides (basolateral compartment for Ap→Bl flux, and apical compartment for B1→Ap) were transferred to wells of a new 96-well plate, followed by the addition of 4 volume of acetonitrile containing IS (100 nM alprazolam, 200 nM Caffeine and 100 nM tolbutamide). Samples were vortexed for 10 minutes, 50 μL samples were transferred to wells of a new 96-well plate, followed by the addition of 50 μL Hepes and 200 μL IS. All samples were vortexed for 10 minutes, and then centrifuged at 3,220 g for 40 minutes. An aliquot of 150 μL of the supernatant was mixed with an appropriate volume of ultra-pure water before LC-MS/MS analysis.
Apparent permeability (Papp) can be calculated for drug transport assays using the following equation: […]
Papp is apparent permeability (cm/s×10^−6);
Papp (B-A) indicates the apparent permeability coefficient in basolateral to apical direction, and
Papp (A-B) indicates the apparent permeability coefficient in apical to basolateral direction.

[6] = tested on: CutC/D enzyme; assay: Acute mouse model (plasma TMAO on choline diet); assay type: in vivo, male C57BL/6 mice; conditions: Table 4f
In short: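 Male C57BL/6 mice fed a diet with 1.0% choline (g/g) received compound in water by oral gavage once daily on days 1–3. Plasma taken 20 h after the last dose was protein-precipitated and TMAO quantified by LC-MS/MS against a 0.05-100 μM d9-TMAO calibration curve in control plasma.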

| SMILES | Cmax ([1]; iv, 1 mg/kg) | IC50 [2] | IC50 [3] | % F ([1]; po, 10 mg/kg) | Cmax ([1]; po, 10 mg/kg) | bioavailability ([1]; po, 10 mg/kg) | Cmax ([4]; C57B3L/6, mouse, in vivo, po) | Papp A→B at 2 h, 1 µM [5] | Papp B→A at 2 h, 1 µM [5] | % change from vehicle control + choline diet ([6]; 3.70 mg/kg oral gavage days 1-3) | Mean plasma TMAO ([6]; 3.70 mg/kg oral gavage days 1-3, plasma 20 h after last gavage) | % change from vehicle control + choline diet ([6]; 11.0 mg/kg oral gavage days 1-3) | Mean plasma TMAO ([6]; 11.0 mg/kg oral gavage days 1-3, plasma 20 h after last gavage) | % change from vehicle control + choline diet ([6]; 36.6 mg/kg oral gavage days 1-3) | Mean plasma TMAO ([6]; 36.6 mg/kg oral gavage days 1-3, plasma 20 h after last gavage) | Cmax ([4]; C57B3L/6, mouse colon contents after oral dose of conjugate, compound measured = conjugate dosed, read-out: Colon Cmax) | Cmax ([4]; C57B3L/6, mouse plasma after oral dose of conjugate, compound measured = conjugate dosed, read-out: Plasma Cmax) |
| --- | --- | --- | --- | --- | --- | --- | --- | --- | --- | --- | --- | --- | --- | --- | --- | --- | --- |
| CC(=O)OC[C@@H]1O[C@H](OCC[N+](C)(C)CCl)[C@@H](OC(C)=O)[C@H](OC(C)=O)[C@H]1OC(C)=O (stereo in doubt) [Compound 78, N-(chloromethyl)-N,N-dimethyl-2-(((2S,3S,4R,5S,6S)-3,4,5-triacetoxy-6-(acetoxymethyl)tetrahydro-2H-pyran-2-yl)oxy)ethan-1-aminium Iodide] | 6 nM | 390 nM | ≥ 10000 nM | – | – | – | – | – | – | – | – | – | – | – | – | – | – |
| CC(=O)OCC1OC(OCC[N+](C)(C)CF)C(OC(C)=O)C(OC(C)=O)C1OC(C)=O.[I-] (stereo in doubt) [Compound 79, N-(fluoromethyl)-N,N-dimethyl-2-(((2S,3S,4R,5S,6S)-3,4,5-triacetoxy-6-(acetoxymethyl)tetrahydro-2H-pyran-2-yl)oxy)ethan-1-aminium Iodide] | 13600 nM | – | – | 1.60% | 260 nM | 2.16% | 5 nM | 0.214 ×10⁻⁶ cm/s | 0.255 ×10⁻⁶ cm/s | – | – | – | – | – | – | – | – |
| CC(=O)OC[C@@H]1O[C@H](OCC[N+](C)(C)CF)[C@@H](OC(C)=O)[C@H](OC(C)=O)[C@H]1OC(C)=O (stereo in doubt) [Compound 79, N-(fluoromethyl)-N,N-dimethyl-2-(((2S,3S,4R,5S,6S)-3,4,5-triacetoxy-6-(acetoxymethyl)tetrahydro-2H-pyran-2-yl)oxy)ethan-1-aminium Iodide] | 1 nM | 1170 nM | ≥ 10000 nM | – | 50 nM | – | – | – | – | – | – | – | – | – | – | – | – |
| C[N+](C)(CF)CCO[C@@H]1O[C@H](CO)[C@@H](O)[C@H](O)[C@H]1O.[Cl-] [Compound 98, (fluoromethyl)dimethyl(2-{[(2R,3R,4S,5S,6R)-3,4,5-trihydroxy-6-(hydroxymethyl)oxan-2-yl]oxy}ethyl)azanium Chloride] | 23600 nM | – | – | – | 306 nM | 0.72% | – | – | – | −8% | 29.7 µM | 6% | 34.3 µM | −69% | 10.1 µM | 21800 nM | 1300 nM |
